# Source: patent publication US20230069963A1, “PYRAZOLO[1,5-A]PYRIMIDINE MACROCYCLIC COMPOUND” (priority 2018, published 2023)
# Structures can show the parent of a compound that is named as a salt.
# System: RSV ATCC VR-1540 (A2)
# Experiment: microbe, parasite or virus in culture
# Assay type: cell-based
# Settings: human respiratory syncytial virus, HEp-2, 96 h; Hep2 cells, incubated for 4 days, CPE detected with XTT assay (absorbance 450 nm); read-out: EC50 (nmol/L) against RSV A2 strain
row,SMILES,EC50 [nmol/L]
1,"Cc1c(CCCN)nc2cc3nn2c1N(C)CCNC(=O)COc1ccc(Cl)cc1C(=O)N1CCCC[C@@H]31 [Example 75, (18aS)-13-(3-aminopropyl)-2-chloro-11,12-dimethyl-8,9,10,11,19,20,21,22-octahydro-18aH, 24H-18,15-(metheno)pyrido[2,1-l]pyrimido[6,1-h][1,4,7,9,10,13]benzoxapentaazacyclohexadecine-7,24 (6H)-dione]",1
2,"Cc1c(CCCCN)nc2cc3nn2c1N(C)CCNC(=O)COc1ccc(Cl)cc1C(=O)N1CCCC[C@@H]31 [Example 78, (18aS)-13-(4-aminobutyl)-2-chloro-11,12-dimethyl-8,9,10,11,19,20,21,22-octahydro-18aH,24H-18,15-(metheno)pyrido[2,1-l]pyrimido[6,1-h][1,4,7,9,10,13]benzoxapentaazacyclohexadecine-7,24(6H)-dione]",1.7
3,"CN1CCNC(=O)COc2ccc(Cl)cc2C(=O)N2CCCCC2c2cc3nc(N4CC[C@H](N)C4)c(F)c1n3n2 (stereo partly drawn) [Example 87, (18aS)-13-[(3S)-3-aminopyrrolidin-1-yl]-2-chloro-12-fluoro-11-methyl-8,9,10,11,19,20,21,22-octahydro-18aH,24H-18,15-(metheno)pyrido[2,1-l]pyrimido[6,1-h][1,4,7,9,10,13]benzoxapentaazacyclohexadecine-7,24(6H)-dione hydrochloride]",3.77
4,"[2H]C([2H])([2H])N1CCNC(=O)COc2ccc(F)cc2C(=O)N2CCCC[C@H]2c2cc3nc(C4CC4)cc1n3n2 [Example 94, (18aS)-13-cyclopropyl-2-fluoro-11-trideuteriomethyl-8,9,10,11,19,20,21,22-octahydro-18aH, 24H-18,15-(metheno)pyrido[2,1-l]pyrimido[6,1-h][1,4,7,9,10,13]benzoxapentaazacyclohexadecine-7,24(6H)-dione]",0.207
5,"CN1CCNC(=O)COc2ccc(I)cc2C(=O)N2CCCC[C@H]2c2cc3nc(C4CC4)cc1n3n2 [Example 97, (18aS)-13-cyclopropyl-2-iodo-1 l-methyl-8,9,10,11,19,20,21,22-octahydro-18aH,24H-18,15-(metheno)pyrido[2,1l-]pyrimido[6,1-h][1,4,7,9,10,13]benzoxapentaazacyclohexadecine-7,24(6H)-dione]",0.76
6,"CN1CCNC(=O)COc2ccc(C3CC3)cc2C(=O)N2CCCC[C@H]2c2cc3nc(C4CC4)cc1n3n2 [Example 99, (18aS)-2,13-dicyclopropyl-11-methyl-8,9,10,11,19,20,21,22-octahydro-18aH,24H-18,15-(metheno)pyrido[2,1-l]pyrimido[6,1-h][1,4,7,9,10,13]benzoxapentaazacyclohexadecine-7,24(6H)-dione]",0.571
7,"CCCc1cc2n3nc(cc3n1)[C@@H]1CCCCN1C(=O)c1cc(CN)ccc1OCC(=O)NCCN2C [Example 101, (18aS)-2-(aminomethyl)-11-methyl-13-propyl-8,9,10,11,19,20,21,22-octahydro-18aH,24H-18,15-(metheno)pyrido[2,1-l]pyrimido[6,1-h][1,4,7,9,10,13]benzoxapentaazacyclohexadecine-7,24(6H)-dione]",11.9
8,"Cc1ccc2c(c1)C(=O)N1CCCC[C@H]1c1cc3nc(C4CC4)cc(n3n1)N(C)CCNC(=O)CO2 [Example 102, (18aS)-13-cyclopropyl-2,11-dimethyl-8,9,10,11,19,20,21,22-octahydro-18aH,24H-18,15-(metheno)pyrido[2,1-l]pyrimido[6,1-h][1,4,7,9,10,13]benzoxapentaazacyclohexadecine-7,24(6H)-dione]",0.239
9,"CN1CCNC(=O)COc2ccc(Cl)cc2C(=O)N2CCCCC2c2cc3nc(C4CC(O)C4)cc1n3n2 [Example 111, (18aS)-2-chloro-13-(cis-3-hydroxycyclobutyl)-11-methyl-8,9,10,11,19,20,21,22-octahydro-18aH,24H-18,15-(metheno)pyrido[2,1-l]pyrimido[6,1-h][1,4,7,9,10,13]benzoxapentaazacyclohexadecine-7,24(6H)-dione]",0.448
10,"O=C1COc2ccc(F)cc2C(=O)N2CCCC[C@H]2c2cc3nc(C4CC4)cc(n3n2)CCCN1 [Example 121, (18aS)-13-cyclopropyl-2-fluoro-8,9,10,11,19,20,21,22-octahydro-18aH,24H-18,15-(metheno)pyrido[2,1-l]pyrimido[6,1-h][1,4,9,10,13]benzoxatemazacyclohexadecine-7,24(6H)-dione]",11
11,"CN1CCNCCOc2ccc(F)cc2C(=O)N2CCCC[C@H]2c2cc3nc(N4CCC4)cc1n3n2 [Example 133, (18aS)-13-(azetidin-1-yl)-2-fluoro-11-methyl-6,7,8,9,10,11,19,20,21,22-decahydro-18aH,24H-18,15-(metheno)pyrido[2,1-l]pyrimido[6,1-h][1,4,7,9,10,13]benzoxapentaazacyclohexadecin-24-one]",1.36
12,"CC1COc2ccc(F)cc2C(=O)N2CCCCC2c2cc3nc(N4CC(N)C4)cc(n3n2)N(C)CCN1 [Example 145, (18aS)-13-(3-aminoazetidin-1-yl)-2-fluoro-7,11-dimethyl-6,7,8,9,10,11,19,20,21,22-decahydro-18aH,24H-18,15-(metheno)pyrido[2,1-l]pyrimido[6,1-h][1,4,7,9,10,13]benzoxapentaazacyclohexadecin-24-one]",17.5
13,"CN1CCOc2ccc(Cl)cc2C(=O)N2CCCC[C@H]2c2cc3nc(N4CC(N)C4)cc(n3n2)N(C)CC1 [Example 151, (18aS)-13-(3-aminoazetidin-1-yl)-2-chloro-8,11-dimethyl-6,7,8,9,10,11,19,20,21,22-decahydro-18aH,24H-18,15-(metheno)pyrido[2,1-l]pyrimido[6,1-h][1,4,7,9,10,13]benzoxapentaazacyclohexadecin-24-one]",17
14,"CN1CCOc2ccc(Cl)cc2C(=O)N2CCCC[C@H]2c2cc3nc(NC4CNC4)cc(n3n2)N(C)CC1 [Example 161, (18aS)-13-[(azetidin-3-yl)amino]-2-chloro-8,11-dimethyl-6,7,8,9,10,11,19,20,21,22-decahydro-18aH,24H-18,15-(metheno)pyrido[2,1-l]pyrimido[6,1-h][1,4,7,9,10,13]benzoxapentaazacyclohexadecin-24-one]",19.6
15,"CN1CCOc2ccc(Cl)cc2C(=O)N2CCCC[C@H]2c2cc3nc(N4CC(F)C4)cc(n3n2)N(C)CC1 [Example 162, (18aS)-2-chloro-13-(3-fluoroazetidin-1-yl)-8,11-dimethyl-6,7,8,9,10,11,19,20,21,22-decahydro-18aH,24H-18,15-(metheno)pyrido[2,1-l]pyrimido[6,1-h][1,4,7,9,10,13]benzoxapentaazacyclohexadecin-24-one]",4.51
16,"CN1CCOc2ccc(Cl)cc2C(=O)N2CCCC[C@H]2c2cc3nc(N4CC(CN)C4)cc(n3n2)N(C)CC1 [Example 163, (18aS)-13-[3-(aminomethyl)azetidin-1-yl]-2-chloro-8,11-dimethyl-6,7,8,9,10,11,19,20,21,22-decahydro-18aH,24H-18,15-(metheno)pyrido[2,1-l]pyrimido[6,1-h][1,4,7,9,10,13]benzoxapentaazacyclohexadecin-24-one]",~10
17,"Cc1ccc2c(c1)C(=O)N1CCCC[C@H]1c1cc3nc(N4CCC4)cc(n3n1)N(C)CCN(C)CCO2 [Example 173, (18aS)-13-(azetidin-1-yl)-2,8,11-trimethyl-6,7,8,9,10,11,19,20,21,22-decahydro-18aH,24H-18,15-(metheno)pyrido[2,1-l]pyrimido[6,1-h][1,4,7,9,10,13]benzoxapentaazacyclohexadecin-24-one]",1.3
18,"Cc1ccc2c(c1)C(=O)N1CCCC[C@H]1c1cc3nc(N4CCC4)cc(n3n1)N(C)CCN(S(N)(=O)=O)CCO2 [Example 178, (18aS)-13-(azetidin-1-yl)-2,11-dimethyl-24-oxo-6,7,10,11,19,20,21,22-octahydro-8aH,24H-18,15-(metheno)pyrido[2,1-l]pyrimido[6,1-h][1,4,7,9,10,13]benzoxapentaazacyclohexadecine-8(9H)-sulfonamide]",4.48
19,"Cc1ccc2c(c1)C(=O)N1CCCC[C@H]1c1cc3nc(N4CC(O)C4)cc(n3n1)N(C)CCN(S(C)(=O)=O)CCO2 [Example 179, (18aS)-13-(3-hydroxyazetidin-1-yl)-8-(methanesulfonyl)-2,11-dimethyl-6,7,8,9,10,11,19,20,21,22-decahydro-18aH,24H-18,15-(metheno)pyrido[2,1-l]pyrimido[6,1-h][1,4,7,9,10,13]benzoxapentaazacyclohexadecin-24-one]",7.33
20,"Cc1ccc2c(c1)C(=O)N1CCCC[C@H]1c1cc3nc(N4CC(N)C4)cc(n3n1)N(C)CCN(S(C)(=O)=O)CCO2 [Example 180, (18aS)-13-(3-aminoazetidin-1-yl)-8-(methanesulfonyl)-2,11-dimethyl-6,7,8,9,10,11,19,20,21,22-decahydro-18aH,24H-18,15-(metheno)pyrido[2,1-l]pyrimido[6,1-h][1,4,7,9,10,13]benzoxapentaazacyclohexadecin-24-one]",33
21,"Cc1ccc2c(c1)C(=O)N1CCCC[C@H]1c1cc3nc(NCCN)cc(n3n1)N(C)CCN(S(C)(=O)=O)CCO2 [Example 182, (18aS)-13-[(2-aminoethyl)amino]-8-(methanesulfonyl)-2,11-dimethyl-6,7,8,9,10,11,19,20,21,22-decahydro-18aH,24H-18,15-(metheno)pyrido[2,1-l]pyrimido[6,1-h][1,4,7,9,10,13]benzoxapentaazacyclohexadecin-24-one hydrochloride]",14.2
22,"CCC1c2cc3nc(N4CC[C@H](N)C4)cc(n3n2)N(C)CCN(S(C)(=O)=O)CCOc2ccc(C)cc2C(=O)N1C (stereo partly drawn) [Example 195, (18S)-3-[(3S)-3-aminopyrrolidin-1-yl]-18-ethyl-8-(methanesulfonyl)-5,14,17-trimethyl-5,6,7,8,9,10,17,18-octahydro-16H-19,1-(metheno)pyrimido[6,1-h][1,4,7,9,11,13]benzoxapentaazacyclohexadecin-16-one]",20.5
